In ChEMBL document CHEMBL1128075, “Chemical modification and structure-activity relationships of pyripyropenes; potent, bioavailable inhibitor of acyl-CoA: Cholesterol O-acyltransferase (ACAT)” (Bioorg Med Chem Lett, 1995):

Target: T1, Sterol O-acyltransferase 2 (Rattus norvegicus, UniProt Q7TQM4)
T1 sequence (Q7TQM4 whole entry): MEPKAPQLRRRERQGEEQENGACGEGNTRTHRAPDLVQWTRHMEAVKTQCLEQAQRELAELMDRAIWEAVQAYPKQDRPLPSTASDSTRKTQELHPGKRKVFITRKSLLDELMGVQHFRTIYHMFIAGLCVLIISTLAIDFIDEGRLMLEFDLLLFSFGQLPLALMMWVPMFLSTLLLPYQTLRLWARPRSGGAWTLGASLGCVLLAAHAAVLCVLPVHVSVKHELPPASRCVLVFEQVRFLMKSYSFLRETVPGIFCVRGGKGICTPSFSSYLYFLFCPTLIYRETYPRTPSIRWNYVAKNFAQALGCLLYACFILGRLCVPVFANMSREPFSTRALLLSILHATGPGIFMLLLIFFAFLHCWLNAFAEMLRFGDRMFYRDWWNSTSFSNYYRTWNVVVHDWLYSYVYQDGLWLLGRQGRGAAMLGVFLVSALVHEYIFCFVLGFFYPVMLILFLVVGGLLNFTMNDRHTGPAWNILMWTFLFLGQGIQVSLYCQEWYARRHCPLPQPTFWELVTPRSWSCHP
Experiment: Inhibitory activity against acyl-CoA:cholesterol O-acyltransferase (ACAT)

IC50 [nM] | Structure (SMILES)
16000 | CCCC(N)C(=O)O[C@H]1c2c(cc(-c3cccnc3)oc2=O)O[C@@]2(C)C1[C@@]1(C)CC[C@H](OC(C)=O)[C@@](C)(COC(C)=O)C1C[C@@H]2OC(C)=O (stereo partly specified)
620 | CCCC(N)C(=O)O[C@H]1CC[C@@]2(C)C(C[C@H](OC(C)=O)[C@@]3(C)Oc4cc(-c5cccnc5)oc(=O)c4[C@H](O)C23)[C@]1(C)COC(C)=O (stereo partly specified)
2500 | CCCC(N)C(=O)O[C@H]1CC2[C@](C)(CC[C@@H]3OC(=O)OC[C@@]23C)C2[C@@H](O)c3c(cc(-c4cccnc4)oc3=O)O[C@@]21C (stereo partly specified)
2400 | CCCCO[C@H]1c2c(cc(-c3cccnc3)oc2=O)O[C@@]2(C)C1[C@@]1(C)CC[C@H](OC(C)=O)[C@@](C)(COC(C)=O)C1C[C@@H]2OC(C)=O (stereo partly specified)
79000 | CCCC(N)C(=O)O[C@H]1CC2[C@](C)(CC[C@H](O)[C@@]2(C)CO)C2[C@@H](O)c3c(cc(-c4cccnc4)oc3=O)O[C@@]21C (stereo partly specified)
5900 | CC(=O)O[C@H]1CC[C@@]2(C)C(C[C@H](OC(C)=O)[C@@]3(C)Oc4cc(-c5cccnc5)oc(=O)c4[C@H](O)C23)[C@]1(C)COCC(C)C (stereo partly specified)
39 | CCCC(N)C(=O)O[C@H]1CC2[C@](C)(CC[C@@H]3OC4(CCCCC4)OC[C@@]23C)C2[C@@H](O)c3c(cc(-c4cccnc4)oc3=O)O[C@@]21C (stereo partly specified)
23000 | CCCO[C@H]1c2c(cc(-c3cccnc3)oc2=O)O[C@@]2(C)C1[C@@]1(C)CC[C@H](OC(C)=O)[C@@](C)(COC(C)=O)C1C[C@@H]2OC(C)=O (stereo partly specified)
4200 | CCCCOC[C@@]1(C)C2C[C@H](OC(C)=O)[C@@]3(C)Oc4cc(-c5cccnc5)oc(=O)c4[C@H](O)C3[C@@]2(C)CC[C@@H]1OC(C)=O (stereo partly specified)
6 | CCCC(N)C(=O)O[C@H]1CC2[C@](C)(CC[C@@H]3OC(c4ccccc4)OC[C@@]23C)C2[C@@H](O)c3c(cc(-c4cccnc4)oc3=O)O[C@@]21C (stereo partly specified)
> 8000 | CCCC(N)C(=O)OC[C@@]1(C)C2C[C@H](OC(C)=O)[C@@]3(C)Oc4cc(-c5cccnc5)oc(=O)c4[C@H](O)C3[C@@]2(C)CC[C@@H]1OC(C)=O (stereo partly specified)
910 | CCCC(N)C(=O)O[C@H]1CC2[C@](C)(CC[C@@H]3OC(C)(c4ccccc4)OC[C@@]23C)C2[C@@H](O)c3c(cc(-c4cccnc4)oc3=O)O[C@@]21C (stereo partly specified)
33 | CCCC(N)C(=O)O[C@H]1CC2[C@](C)(CC[C@@H]3OC(CC)OC[C@@]23C)C2[C@@H](O)c3c(cc(-c4cccnc4)oc3=O)O[C@@]21C (stereo partly specified)
5800 | CC(=O)OC[C@@]1(C)C2C[C@H](OC(C)=O)[C@@]3(C)Oc4cc(-c5cccnc5)oc(=O)c4C=C3[C@@]2(C)CC[C@@H]1OC(C)=O (stereo partly specified)
86 | CCCC(N)C(=O)O[C@H]1CC2[C@](C)(CC[C@@H]3OC(C)(C)OC[C@@]23C)C2[C@@H](O)c3c(cc(-c4cccnc4)oc3=O)O[C@@]21C (stereo partly specified)
5800 | CC(=O)OC[C@@]1(C)C2C[C@H](OC(C)=O)[C@@]3(C)Oc4cc(-c5ccc[n+]([O-])c5)oc(=O)c4[C@H](O)C3[C@@]2(C)CC[C@@H]1OC(C)=O (stereo partly specified)
140 | CCCO[C@H]1CC[C@@]2(C)C(C[C@H](OC(C)=O)[C@@]3(C)Oc4cc(-c5cccnc5)oc(=O)c4[C@H](O)C23)[C@]1(C)COC(C)=O (stereo partly specified)
38 | CCCCO[C@H]1CC2[C@](C)(CC[C@H](OC(C)=O)[C@@]2(C)COC(C)=O)C2[C@@H](O)c3c(cc(-c4cccnc4)oc3=O)O[C@@]21C (stereo partly specified)
67 | CCCO[C@H]1CC2[C@](C)(CC[C@H](OC(C)=O)[C@@]2(C)COC(C)=O)C2[C@@H](O)c3c(cc(-c4cccnc4)oc3=O)O[C@@]21C (stereo partly specified)

IC50 [nM] | Structure (SMILES)
25 | CCCC(N)C(=O)O[C@H]1CC2[C@](C)(CC[C@@H]3OC(C)OC[C@@]23C)C2[C@@H](O)c3c(cc(-c4cccnc4)oc3=O)O[C@@]21C (stereo partly specified)
270 | CCCOC[C@@]1(C)C2C[C@H](OC(C)=O)[C@@]3(C)Oc4cc(-c5cccnc5)oc(=O)c4[C@H](O)C3[C@@]2(C)CC[C@@H]1OC(C)=O (stereo partly specified)
200 | CCCCO[C@H]1CC[C@@]2(C)C(C[C@H](OC(C)=O)[C@@]3(C)Oc4cc(-c5cccnc5)oc(=O)c4[C@H](O)C23)[C@]1(C)COC(C)=O (stereo partly specified)
13 | CCCC(N)C(=O)O[C@H]1CC2[C@](C)(CC[C@H](OC(C)=O)[C@@]2(C)COC(C)=O)C2[C@@H](O)c3c(cc(-c4cccnc4)oc3=O)O[C@@]21C (stereo partly specified)
7400 | CC(=O)OCC1(C)C2C[C@H](OCc3ccccc3)[C@@]3(C)Oc4cc(-c5cccnc5)oc(=O)c4[C@H](O)C3[C@@]2(C)CC[C@@H]1OC(C)=O (single isomer, unassigned)
1200 | CC(=O)O[C@H]1CC2C3(C)COC(C)(C)O[C@H]3CC[C@]2(C)C2[C@@H](O)c3c(cc(-c4cccnc4)oc3=O)O[C@@]21C (single isomer, unassigned)
19 | CC(=O)O[C@H]1CC[C@@]2(C)C(C[C@H](OC(C)=O)[C@@]3(C)Oc4cc(-c5cccnc5)oc(=O)c4[C@H](O)C23)C1(C)COS(C)(=O)=O (single isomer, unassigned)
110000 | CC(=O)O[C@H]1CC[C@@]2(C)C(C[C@H](OC(C)=O)[C@@]3(C)Oc4cc(-c5cccnc5)oc(=O)c4[C@H](O)C23)C1(C)COS(=O)(=O)c1ccccc1 (single isomer, unassigned)
38000 | CO[C@H]1c2c(cc(-c3cccnc3)oc2=O)O[C@@]2(C)C1[C@@]1(C)CC[C@H](OC(C)=O)C(C)(COC(C)=O)C1C[C@@H]2OC(C)=O (single isomer, unassigned)
120 | CC(=O)O[C@H]1CC2C3(C)COC(c4ccccc4)O[C@H]3CC[C@]2(C)C2[C@@H](O)c3c(cc(-c4cccnc4)oc3=O)O[C@@]21C (single isomer, unassigned)
> 180000 | CC12COC(c3ccccc3)O[C@H]1CC[C@@]1(C)C2C[C@H](O)[C@@]2(C)Oc3cc(-c4cccnc4)oc(=O)c3[C@H](O)C12 (single isomer, unassigned)
> 220000 | CC1(CO)C2C[C@H](O)[C@@]3(C)Oc4cc(-c5cccnc5)oc(=O)c4[C@H](O)C3[C@@]2(C)CC[C@@H]1O (single isomer, unassigned)
2100 | CC(=O)OCC1(C)C2C[C@H](OC(C)=O)[C@@]3(C)Oc4cc(-c5ccc[n+](C)c5)oc(=O)c4[C@H](O)C3[C@@]2(C)CC[C@@H]1OC(C)=O (single isomer, unassigned)
2100 | CC(=O)OCC1(C)C2C[C@H](OC(C)=O)[C@@]3(C)Oc4cc(-c5cccnc5)oc(=O)c4C(=O)C3[C@@]2(C)CC[C@@H]1OC(C)=O (single isomer, unassigned)
100000 | CC(=O)O[C@H]1CC2C(C)(CO)[C@@H](O)CC[C@]2(C)C2[C@@H](O)c3c(cc(-c4cccnc4)oc3=O)O[C@@]21C (single isomer, unassigned)
1800 | CC(=O)OCC1(C)C2C[C@H](OS(C)(=O)=O)[C@@]3(C)Oc4cc(-c5cccnc5)oc(=O)c4[C@H](O)C3[C@@]2(C)CC[C@@H]1OC(C)=O (single isomer, unassigned)
5100 | CC(=O)OCC1(C)C2C[C@H](OC(C)=O)[C@@]3(C)Oc4cc(-c5cccnc5)oc(=O)c4[C@H](OC(C)=O)C3[C@@]2(C)CC[C@@H]1OC(C)=O (single isomer, unassigned)
3100 | CC(=O)OCC1(C)C2C[C@H](OS(=O)(=O)c3ccccc3)[C@@]3(C)Oc4cc(-c5cccnc5)oc(=O)c4[C@H](O)C3[C@@]2(C)CC[C@@H]1OC(C)=O (single isomer, unassigned)

Structure (SMILES) | IC50 [nM]
CC(=O)OC[C@@]1(C)C2C[C@H](OCC(C)C)[C@@]3(C)Oc4cc(-c5cccnc5)oc(=O)c4[C@H](O)C3[C@@]2(C)CC[C@@H]1OC(C)=O (stereo partly specified) | 130
CC(=O)OC[C@@]1(C)C2C[C@H](OC(C)=O)[C@@]3(C)Oc4cc(-c5cccnc5)oc(=O)c4[C@H](O)C3[C@@]2(C)CC[C@@H]1OCC(C)C (stereo partly specified) | 130
CC1(C)OCC2(C)C3C[C@H](O)[C@@]4(C)Oc5cc(-c6cccnc6)oc(=O)c5[C@H](O)C4[C@@]3(C)CC[C@@H]2O1 (single isomer, unassigned) | > 200000

Tested on: Cricetinae gen. sp.
Experiment: Effective dose for inhibition of [3H]- cholesterol absorption in a hamster model.
Format: functional, Cricetulus griseus

Structure (SMILES) | ED50 [mg/kg]
CC(=O)O[C@H]1CC[C@@]2(C)C(C[C@H](OC(C)=O)[C@@]3(C)Oc4cc(-c5cccnc5)oc(=O)c4[C@H](O)C23)C1(C)COS(C)(=O)=O (single isomer, unassigned) | 10
